In patent US8552007B2, “Mesoionic pesticides” (E.I. du Pont de Nemours and Company, priority 2008, dated 2013):
Where a name gives a salt, the structure may show the parent alone. Read-outs that look alike come from different tables or passages of the source.

Tests used:
[1] = system: corn planthopper (Peregrinus maidis); assay: whole plant or invertebrate; format: in vivo; conditions: 144 h
Method: For evaluating control of corn planthopper (Peregrinus maidis) through contact and/or systemic means, the test unit consisted of a small open container with a 3-4-day-old maize plant (spike) inside. White sand was added to the top of the soil prior to application. Test compounds were formulated and sprayed at 250 and 50 ppm and replicated three times as described for Test A. After spraying, the test units were allowed to dry for 1 h before they were post-infested with ˜15-20 nymphs (18 to 21 day old) by sprinkling them onto the sand with a salt shaker. A black, screened cap was placed on the top of the cylinder. The test units were held for 6 days in a growth chamber at 22-24° C. and 50-70% relative humidity. Each test unit was then visually assessed for insect mortality.

[2] = system: cat flea (Ctenocephalides felis); assay: whole plant or invertebrate; format: in vivo; conditions: 30 ppm in bovine blood, adult fleas, 72 h
Method: For evaluating control of the cat flea (Ctenocephalides felis), a test compound was solubilized in propylene glycol/glycerol formal (60:40) and then diluted in bovine blood to a final test rate of 30 ppm. The treated blood was placed in a tube with the bottom of the tube covered with a membrane. Approximately 10 adult cat fleas were allowed to feed through the membrane on the treated blood. The adult fleas were evaluated for mortality 72 h later.

[3] = system: cat flea (Ctenocephalides felis); assay: whole plant or invertebrate; format: in vivo; conditions: 20 μL of 500 ppm solution on filter paper, adult fleas, 48 hours
Method: For evaluating control of the cat flea (Ctenocephalides felis), a test compound was solubilized in acetone:water (75:25) to a final test rate of 500 ppm. Then 20 μL of the 500 ppm solution was applied to filter paper in the bottom of a tube. The tube was allowed to dry for 3 hours. Then approximately 10 adult fleas were added to the tube and the tube was capped. The fleas were evaluated for mortality 48 hours later.

[4] = system: potato leafhopper (Empoasca fabae); assay: whole plant or invertebrate; format: in vivo; conditions: 144 h, Soleil bean plant, 6 days; for mortality at 250 ppm: sprayed at 250 ppm; for mortality at 50 ppm: sprayed at 50 ppm
Method: For evaluating control of potato leafhopper (Empoasca fabae) through contact and/or systemic means, the test unit consisted of a small open container with a 5-6-day-old Soleil bean plant (primary leaves emerged) inside. White sand was added to the top of the soil and one of the primary leaves was excised prior to application.
Test compounds were formulated and sprayed at 250 and 50 ppm, and the tests were replicated three times as described for Test A. After spraying, the test units were allowed to dry for 1 h before they were post-infested with 5 potato leafhoppers (18-21-day-old adults). A black, screened cap was placed on the top of the cylinder. The test units were held for 6 days in a growth chamber at 24° C. and 70% relative humidity. Each test unit was then visually assessed for insect mortality.

[5] = system: green peach aphid (Myzus persicae); assay: whole plant or invertebrate; format: in vivo; conditions: 144 h, sprayed at 250 ppm, radish plant, 6 days
From the text: For evaluating control of green peach aphid (Myzus persicae) through contact and/or systemic means, the test unit consisted of a small open container with a 12-15-day-old radish plant inside. This was pre-infested by placing on a leaf of the test plant 30-40 aphids on a piece of leaf excised from a culture plant (cut-leaf method). The aphids moved onto the test plant as the leaf piece desiccated. After pre-infestation, the soil of the test unit was covered with a layer of sand.
Test compounds were formulated and sprayed at 250 ppm as described for Test A. The applications were replicated three times. After spraying of the formulated test compound, each test unit was allowed to dry for 1 h and then a black, screened cap was placed on top. The test units were held for 6 days in a growth chamber at 19-21° C. and 50-70% relative humidity. Each test unit was then visually assessed for insect mortality.

[6] = sprayed at 50 ppm, maize plant, 6 days, read-out: mortality
[7] = sprayed at 250 ppm, maize plant, 6 days, read-out: mortality

| Structure (SMILES) | mortality at 50 ppm [1, 6] [%] | mortality at 500 ppm [3] [%] | mortality at 250 ppm [1, 7] [%] | mortality at 250 ppm [4] [%] | further results |
| --- | --- | --- | --- | --- | --- |
| COc1cccc(-c2ccc(C[n+]3c([O-])c(-c4ccccc4)c(=O)n4ccccc43)cn2)c1 [Compound 599] | ≥ 80 | ≥ 50 | – | – | mortality at 30 ppm [2]: ≥ 50% |
| COc1cccc(-c2ncc(C[n+]3c([O-])c(I)c(=O)n4ccccc43)s2)c1 [Compound 613, 2-hydroxy-3-iodo-1-[[2-(3-methoxyphenyl)-5-thiazolyl]methyl]-4-oxo-4H-pyrido[1,2-a]-pyrimidinium inner salt] | ≥ 80 | – | ≥ 80 | ≥ 80 | – |
| CC(C)c1c([O-])[n+](CC(F)(F)F)c2ccccn2c1=O [Compound 115] | – | ≥ 50 | ≥ 80 | – | – |
| O=c1c(-c2ccncc2Cl)c([O-])[n+](CC(F)(F)F)c2ccccn12 [Compound 121] | ≥ 80 | ≥ 50 | ≥ 80 | – | mortality at 30 ppm [2]: ≥ 50% |
| O=c1cc([O-])[n+](CC(F)(F)F)c2ccccn12 (as salt: salt) [Compound 610, 2-hydroxy-4-oxo-1-(2,2,2-trifluoroethyl)-4H-pyrido[1,2-a]-pyrimidinium inner salt] | – | – | – | – | melting point: 214 to 215 °C |
| O=c1c(C2CCc3ccccc32)c([O-])[n+](Cc2ccc(Cl)nc2)c2ccccn12 (stereo not drawn) [Compound 757] | – | – | – | – | mortality at 50 ppm [1]: ≥ 80%; mortality at 250 ppm [1]: ≥ 80% |
| O=C(c1c([O-])[n+](CC(F)(F)F)c2ccccn2c1=O)C(F)(F)F [Compound 711, 2-hydroxy-4-oxo-3-(2,2,2-trifluoroacetyl)-1-(2,2,2-trifluoroethyl)-4H-pyrido[1,2-a]-pyrimidinium inner salt] | – | – | – | – | mortality at 50 ppm [4]: ≥ 80% |
| O=c1c(-c2ccccc2)c([O-])[n+](C2CCOCC2)c2ccccn12 [Compound 583] | – | – | ≥ 80 | – | – |
| O=c1c(-c2ccc(F)nc2)c([O-])[n+](CC(F)(F)F)c2ccccn12 [Compound 571] | ≥ 80 | – | ≥ 80 | ≥ 80 | – |
| O=c1c(I)c([O-])[n+](CC(F)(F)F)c2ccccn12 [Compound 111] | ≥ 80 | – | ≥ 80 | ≥ 80 | mortality at 250 ppm [5]: ≥ 80%; mortality at 50 ppm [4]: ≥ 80% |
| COc1cccc(-c2ncc(C[n+]3c([O-])c(-c4ccccc4)c(=O)n4ccccc43)s2)c1 [Compound 520] | – | ≥ 50 | – | – | – |
| O=c1c(-c2ccc(Cl)nc2)c([O-])[n+](CC(F)(F)F)c2ccccn12 [Compound 570] | ≥ 80 | – | ≥ 80 | ≥ 80 | mortality at 50 ppm [4]: ≥ 80% |
